Paper PMC6321145 (Molecules, 2018)

Experiments:
[1] = Cytotoxicity on SH-SY5Y cells (MTT); format: cell-based, human; conditions: human, SH-SY5Y neuroblastoma cells; MTT, 24 h; mean ± SEM of three measurements
Protocol: The cytotoxicity of our synthesized compounds was examined in human neuroblastoma SH-SY5Y cells. The cell viability was determined by using methyl thiazolyl tetrazolium (MTT) colorimetry, the cells were treated with different concentrations of compounds (0–100 μM). The result is shown in the Supplementary Materials (Table S1).
The cytotoxicities of the compounds were evaluated using the MTT assay. SH-SY5Y cells were subcultured in 96-well plates at a seeding density of 1 × 10^4 cells per well. After 24 h, the medium was removed and treated with different concentrations of tested compounds for 24 h at 37 °C. The survival of cells was determined with MTT assay. Then 80 μL of medium and 20 μL of MTT (0.5 mg/mL, final concentration) were added to each well and incubated for another 4 h. After the removal of MTT, the formazan crystals were dissolved in DMSO. The amount of formazan was measured using a microculture plate reader at the wavelength of 570 nm. Each concentration was performed in triplicate.

Aβ1–42 = target: T1, Aβ1–42 (Homo sapiens, UniProt P05067); experiment: Inhibition of self-induced Aβ1–42 aggregation (ThT fluorescence assay); format: biochemical
T1 construct: Aβ1–42 (Sigma, St. Louis, MO, USA; counterion, NaOH) stock solution was prepared by dissolving Aβ1–42 peptide in ammonium hydroxide; purchased Sigma
Protocol: The formation and aggregation of Aβ1–42 in the brain leads to neurotoxicity in AD. In order to evaluate the activity of our new synthetic compounds to inhibit Aβ1–42 self-induced aggregation, the thioflavin (ThT) fluorescence assay was performed.
All ThT experiments were performed according to our previously published methods. Aβ1–42 (Sigma, St. Louis, MO, USA; counterion, NaOH) stock solution was prepared by dissolving Aβ1–42 peptide in ammonium hydroxide (1% v/v), and diluting with 20 mM phosphate buffer (pH 7.4) to 100 μM. The tested compounds were firstly dissolved in DMSO at a concentration of 10 mM, and then diluted with 20 mM phosphate buffer (pH 7.4) to 40 μM.
For the inhibition of self-induced Aβ1–42 aggregation. Aβ1–42 peptide (2 μL, 50 μM, final concentration) with the tested compound (2 μL, 20 μM, final concentration) or 20 mM phosphate buffer (2 μL) was incubated in 20 mM phosphate buffer (pH 7.4) at 37 °C for 72 h. After incubation, the samples were diluted to a final volume of 36 μL with 50 mM glycine-NaOH buffer (pH 8.5) containing 5 μM Thioflavin T. Fluorescence signal was measured (excitation wavelength 450 nm, emission wavelength 485 nm, and slit widths set to 5 nm) on a monochromator-based multimode microplate reader ([…] M1000, TECAN, Hombrechtikon, Switzerland), adapted for 384-well microtiter plates. […] Each compound was examined in triplicate.

[2] = Oxygen radical absorbance capacity with fluorescein (ORAC-FL) assay
Protocol: Oxidative stress is another crucial event in AD pathogenesis. In order to determine antioxidant activities of our synthetic compounds, the oxygen radical absorbance capacity method with fluorescein (ORAC-FL) assay was performed. with Trolox (6-hydroxy-2,5,7,8-tetramethylchroman-2-carboxylic acid) as the standard, and their antioxidant activity was expressed as Trolox equivalents.
The antioxidant activities of the compounds in vitro were determined by the oxygen radical absorbance capacity fluorescein (ORAC-FL) assay. The tested compounds and (±)-6-hydroxy-2,5,7,8-tetramethylchroman-2-carboxylic acid (Trolox) were dissolved in DMSO at a concentration of 10 mM, and then diluted with 75 mM potassium phosphate buffer (pH 7.4) to 50 μM and 10 μM for use. The fluorescein (FL) stock solution (3.4 mM) was diluted with the same buffer to 136 nM. All the assays were conducted with 75 mM potassium phosphate bufffer (pH 7.4), and the final reaction mixture was 200 μL.
The mixture of compounds (or buffer) (20 μL) and fluorescein (FL, 120 μL) were incubated for 15 min at 37 °C in a black 96-well plate. Then 2,2′-azobis-(amidino-propane)-dihydrochloride (AAPH) solution (60 μL, 40 mM) was rapidly added to the reaction mixture. The fluorescence was recorded every 5 min for 240 min at 485 nm (excitation wavelength) and 535 nm (emission wavelength) (Varioskan Flash Multimode Reader, Thermo Scientific, Waltham, MA, USA), and each sample was prepared and measured for three times independently. […] The net AUC for a sample was calculated using the expression net AUC = AUCsample − AUCblank, The ORAC-FL value of each sample was calculated using the equation of net AUCsample/(AUCTrolox – AUCblank), which was expressed as Trolox equivalents.

SH-SY5Y cells = experiment: Cellular ROS detection (DCFH-DA) in SH-SY5Y cells treated with t-BuOOH; format: cell-based, human; conditions: compound 2.5 μM; 0.1 mM t-BuOOH; compared with Trolox
Protocol: To further investigate their antioxidant activity in SH-SY5Y cells, cellular ROS detection assay based on dichlorofluorescein diacetate (DCFH-DA) was performed. with Trolox and N-acetyl-L-cysteine (NAC) as reference compounds.
SH-SY5Y cells were maintained in Dulbecco’s modified Eagle’s medium (DEME) and supplemented with 1 mM glutamine, 10% fetal calf serum, 100 U/mL penicillin, and 100 μg/mL streptomycin. The cultures were maintained at 37 °C in a humidified incubator containing 5% CO2 and were passaged twice weekly.
The antioxidant activity of the compounds in SH-SY5Y cells were tested with the fluorescent probe (2′,7′-dichlorofluorescein diacetate, DCFH-DA) as reported with some variation. SH-SY5Y cells were sub-cultured in 96-well plates at a seeding density of 1 × 10^4 cells per well for 24 h, then the medium was removed, the tested compounds (2.5 μM) was added and incubated for another 24 h at 37 °C. After that, the cells were washed with PBS and incubated with 5 μM DCFH-DA in PBS at 37 °C in 5% CO2 for 30 min. Then DCFH-DA was removed, the cells were washed three times and incubated with 0.1 mM t-BuOOH in PBS for 30 min. After the incubation, the cell fluorescence from each well was measured at 485 nm excitation and 535 nm emission with a monochromator based multimode microplate reader ([…] M1000).

[3] = inhibitor 20 μM, Aβ1–42 50 μM, ThT, 37 °C, 72 h, mean ± SD

T1 sequence (P05067 672-713): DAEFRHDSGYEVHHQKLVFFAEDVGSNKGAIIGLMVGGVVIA

Row | Compound | melting point [°C] | IC50 at 24 h [1] [µM] | inhibition at 20 µM (Aβ1–42; [3]) [%] | ORAC ([2]; compound 1 μM) | ORAC ([2]; compound 5 μM) | Antioxidant activity in SH-SY5Y cells (ROS generation, DCFH-DA fluorescence) (SH-SY5Y cells) | IC50 (Aβ1–42; ThT fluorescence method, mean ± SD of three experiments, read-out: IC50 against self-induced Aβ1–42 aggregation) [µM] | Aβ1–42 Aggregation Inhibition (%) (Aβ1–42; [3])
1 | CCN(CC)c1ccc(/C=C/c2cc(NCC(C)C)c3ccccc3n2)cc1 [Compound 6e1, (E)-2-(4-(Diethylamino)styryl)-N-isobutylquinolin-4-amine] | 170.2 to 171.7 | 143.6 ± 0.7 | 77.9 ± 1.3 | 1.71 ± 0.05 μmol of Trolox equivalents/μmol of tested compounds | 1.92 ± 0.11 μmol of Trolox equivalents/μmol of tested compounds |  |  | 
2 | CN(C)CCCNc1cc(/C=C/c2c[nH]c3ccccc23)nc2ccccc12 [Compound 6b3, (E)-N^1-(2-(2-(1H-Indol-3-yl)vinyl)quinolin-4-yl)-N^3,N^3-dimethylpropane-1,3-diamine] | 168.2 to 169.5 | 168.1 ± 0.2 | 87.2 ± 2.1 | 3.96 ± 0.08 μmol of Trolox equivalents/μmol of tested compounds | 4.21 ± 0.08 μmol of Trolox equivalents/μmol of tested compounds | a little weaker antioxidant activity than Trolox |  | 
3 | CN(C)CCNc1cc(/C=C/c2ccc(N(C)C)cc2)nc2ccccc12 [Compound 6c2, (E)-N^1-(2-(4-(Dimethylamino)styryl)quinolin-4-yl)-N^2,N^2-dimethylethane-1,2-diamine] | 148.9 to 149.6 | 127.5 ± 0.4 | 83.9 ± 2.4 | 3.28 ± 0.09 μmol of Trolox equivalents/μmol of tested compounds | 3.53 ± 0.07 μmol of Trolox equivalents/μmol of tested compounds |  |  | 
4 | CCCCNc1cc(/C=C/c2ccc(N(C)C)cc2)nc2ccccc12 [Compound 6d2, (E)-N-Butyl-2-(4-(dimethylamino)styryl)quinolin-4-amine] | 165.3 to 167.1 | 112.4 ± 0.6 | 79.2 ± 2.3 | 0.75 ± 0.06 μmol of Trolox equivalents/μmol of tested compounds | 0.95 ± 0.09 μmol of Trolox equivalents/μmol of tested compounds |  |  | 
5 | CCN(CC)c1ccc(/C=C/c2cc(NCCN(C)C)c3ccccc3n2)cc1 [Compound 6c1, (E)-N^1-(2-(4-(Diethylamino)styryl)quinolin-4-yl)-N^2,N^2-dimethylethane-1,2-diamine] | 145.2 to 147.1 | 154.3 ± 0.5 | 85.1 ± 1.4 | 2.79 ± 0.04 μmol of Trolox equivalents/μmol of tested compounds | 3.24 ± 0.10 μmol of Trolox equivalents/μmol of tested compounds |  |  | 
6 | CN(C)CCCNc1cc(/C=C/c2ccc(N(C)C)cc2)nc2ccccc12 [Compound 6b2, (E)-N^1-(2-(4-(Dimethylamino)styryl)quinolin-4-yl)-N^3,N^3-dimethylpropane-1,3-diamine] | 151.2 to 153.3 | 228 | 92.1 ± 1.3 | 5.61 ± 0.09 μmol of Trolox equivalents/μmol of tested compounds | 5.88 ± 0.01 μmol of Trolox equivalents/μmol of tested compounds |  | 6.1 ± 0.8 | 
7 | Cc1c(C)c2c(c(C)c1O)CCC(C)(C(=O)O)O2 (stereo not drawn) [Trolox, 6-hydroxy-2,5,7,8-tetramethylchroman-2-carboxylic acid, reference compound] |  |  |  |  |  | decrease the intensity of fluorescence |  | 
8 | CC(C)CNc1cc(/C=C/c2ccc(N(C)C)cc2)nc2ccccc12 [Compound 6e2, (E)-2-(4-(Dimethylamino)styryl)-N-isobutylquinolin-4-amine] | 171.8 to 173.2 | 141.9 ± 0.5 | 77.5 ± 1.5 | 1.68 ± 0.06 μmol of Trolox equivalents/μmol of tested compounds | 1.78 ± 0.05 μmol of Trolox equivalents/μmol of tested compounds |  |  | 
9 | CCN(CC)c1ccc(/C=C/c2cc(N3CCCCC3)c3ccccc3n2)cc1 [Compound 4b1, reference compound] |  |  | 83.5 ± 1.4 | 3.70 ± 0.11 μmol of Trolox equivalents/μmol of tested compounds | 3.91 ± 0.11 μmol of Trolox equivalents/μmol of tested compounds |  |  | 
10 | CCN(CC)CCCNc1cc(/C=C/c2c[nH]c3ccccc23)nc2ccccc12 [Compound 6a3, (E)-N^1-(2-(2-(1H-Indol-3-yl)vinyl)quinolin-4-yl)-N^3,N^3-diethylpropane-1,3-diamine] | 194.3 to 195.1 | 147.8 ± 0.3 | 84.3 ± 2.1 | 1.26 ± 0.06 μmol of Trolox equivalents/μmol of tested compounds | 1.73 ±0.07 μmol of Trolox equivalents/μmol of tested compounds |  |  | 
11 | CN(C)c1ccc(/C=C/c2cc(N3CCCCC3)c3ccccc3n2)cc1 [Compound 4b2, reference compound] |  |  | 81.2 ± 0.8 | 2.91 ± 0.11 μmol of Trolox equivalents/μmol of tested compounds | 3.12 ± 0.10 μmol of Trolox equivalents/μmol of tested compounds |  |  | 
12 | CC(=O)N[C@@H](CS)C(=O)O [NAC, N-acetyl-L-cysteine, reference compound] |  |  |  |  |  | didn’t remove ROS generation |  | 
13 | COc1cc(/C=C/C(=O)CC(=O)/C=C/c2ccc(O)c(OC)c2)ccc1O [Cur, curcumin, reference compound] |  |  |  |  |  |  |  | 49.3 ± 1.2
14 | CCCCNc1cc(/C=C/c2ccc(N(CC)CC)cc2)nc2ccccc12 [Compound 6d1, (E)-N-Butyl-2-(4-(diethylamino)styryl)quinolin-4-amine] | 172.5 to 173.8 | 119.3 ± 0.7 | 80.5 ± 1.4 | 1.38 ± 0.02 μmol of Trolox equivalents/μmol of tested compounds | 1.56 ± 0.05 μmol of Trolox equivalents/μmol of tested compounds |  |  | 
15 | CCN(CC)CCCNc1cc(/C=C/c2ccc(N(C)C)cc2)nc2ccccc12 [Compound 6a2, (E)-N^1-(2-(4-(Dimethylamino)styryl)quinolin-4-yl)-N^3,N^3-diethylpropane-1,3-diamine] | 168.5 to 170.1 | 187.5 ± 0.2 | 88.5 ± 1.5 | 5.74 ± 0.09 μmol of Trolox equivalents/μmol of tested compounds |  |  |  | 
